We go through eight molecules from ChEMBL document CHEMBL1201862, “PubChem BioAssay data set” (2004).

The target in assay [1] is Heat shock protein HSP 90-alpha (Homo sapiens, UniProt P07900). Nature of the assay: Luminescence-based dose response biochemical high throughput screening assay for inhibitors of the Heat Shock Protein 90 (HSP90). [Related pubchem assays: 1831 (Summary AID.), 1846 (Confirmation screen.), 1789 (Primary screen.)].
In assay [2] the target is T1, Replicative DNA helicase DnaB (Mycobacterium tuberculosis, UniProt P9WMR3).
T1 sequence (P9WMR3 whole entry): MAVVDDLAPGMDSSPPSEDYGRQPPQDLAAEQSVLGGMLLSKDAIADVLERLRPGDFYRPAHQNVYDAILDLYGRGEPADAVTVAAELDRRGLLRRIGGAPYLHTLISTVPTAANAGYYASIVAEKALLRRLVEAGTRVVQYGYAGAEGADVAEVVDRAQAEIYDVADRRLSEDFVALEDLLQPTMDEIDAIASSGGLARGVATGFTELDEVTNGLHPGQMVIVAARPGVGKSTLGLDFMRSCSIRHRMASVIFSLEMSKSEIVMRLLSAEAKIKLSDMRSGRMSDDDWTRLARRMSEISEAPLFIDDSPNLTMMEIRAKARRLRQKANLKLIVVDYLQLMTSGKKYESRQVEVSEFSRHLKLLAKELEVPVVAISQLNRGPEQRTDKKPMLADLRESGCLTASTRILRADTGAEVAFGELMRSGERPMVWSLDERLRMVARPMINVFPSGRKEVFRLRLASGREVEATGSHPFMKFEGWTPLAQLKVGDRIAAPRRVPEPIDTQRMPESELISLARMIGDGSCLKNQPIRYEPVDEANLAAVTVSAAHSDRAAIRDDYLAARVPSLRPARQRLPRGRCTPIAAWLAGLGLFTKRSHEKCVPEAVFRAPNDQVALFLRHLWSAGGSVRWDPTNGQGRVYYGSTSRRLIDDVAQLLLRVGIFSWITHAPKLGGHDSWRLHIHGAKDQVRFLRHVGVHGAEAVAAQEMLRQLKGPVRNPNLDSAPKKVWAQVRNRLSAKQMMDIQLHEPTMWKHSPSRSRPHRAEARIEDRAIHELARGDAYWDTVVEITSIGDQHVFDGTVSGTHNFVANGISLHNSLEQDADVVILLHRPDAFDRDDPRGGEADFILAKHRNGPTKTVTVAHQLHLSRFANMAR
The experiment in a line: DnaB intein splicing inhibitors, dose response, biochemical, cell-free fluorescence (AID 449749). It is filed as functional.

A further assay addresses T2, Protein RecA (Mycobacterium tuberculosis, UniProt P9WHJ3).
T2 sequence (P9WHJ3 whole entry): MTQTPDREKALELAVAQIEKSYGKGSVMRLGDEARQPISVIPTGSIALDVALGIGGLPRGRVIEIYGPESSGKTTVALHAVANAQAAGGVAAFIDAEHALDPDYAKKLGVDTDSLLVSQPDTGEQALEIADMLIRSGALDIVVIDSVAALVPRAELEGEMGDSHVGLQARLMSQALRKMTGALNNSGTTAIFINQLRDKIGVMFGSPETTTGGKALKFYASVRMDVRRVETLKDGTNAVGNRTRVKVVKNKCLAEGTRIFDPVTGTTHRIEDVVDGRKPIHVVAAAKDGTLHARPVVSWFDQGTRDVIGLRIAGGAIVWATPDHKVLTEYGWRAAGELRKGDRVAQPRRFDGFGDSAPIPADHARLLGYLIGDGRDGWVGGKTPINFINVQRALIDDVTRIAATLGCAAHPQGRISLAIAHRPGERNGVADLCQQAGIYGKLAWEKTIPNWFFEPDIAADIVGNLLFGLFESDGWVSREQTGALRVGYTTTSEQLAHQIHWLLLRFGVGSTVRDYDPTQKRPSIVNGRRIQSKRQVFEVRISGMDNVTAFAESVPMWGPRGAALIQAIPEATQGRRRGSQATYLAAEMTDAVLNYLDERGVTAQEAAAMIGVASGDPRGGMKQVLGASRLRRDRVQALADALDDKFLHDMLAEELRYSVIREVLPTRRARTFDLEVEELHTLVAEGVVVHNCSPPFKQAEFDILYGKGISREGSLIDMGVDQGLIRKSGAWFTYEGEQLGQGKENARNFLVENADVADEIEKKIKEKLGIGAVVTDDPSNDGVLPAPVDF
Nature of the assay: Fluorescence Cell-Free Homogeneous Dose Retest to Identify Inhibitors of RecA-Intein Splicing Activity. [Related pubchem assays (depositor defined):AID2097, AID2223, AID489010, AID492950]. It is filed as functional.

For a further assay, the system named is BJ. The experiment in a line: growth inhibition of engineered Ras-driven BJ cells – cell-based, alamar blue fluorescence, cherrypicked samples, dose response (AID 2631).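 Further: confirmatory dose-response assay in RAS-dependent BJ fibroblasts engineered with TERT, LT and ST, with cytotoxicity read by fluorescence.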 The assay is classed as functional. Conditions: Homo sapiens. A general note: Resazurin is reduced to fluorescent resorufin, in cell work by metabolically active cells.
Assay [3] in a line: viability of PTEN-deleted HCT116 cells – cell-based, HCT116 PTEN knockout, dose response (AID 1047).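 Further: HCT116 colon tumor cells with PTEN knocked out; cells exposed to compound for 60 hours before readout; potency for loss of cell viability measured by luminescence.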 It is filed as functional.
Assay [4] concerns the target T3, Heat shock factor protein 1 (Mus musculus, UniProt P38532).
T3 sequence (P38532 whole entry): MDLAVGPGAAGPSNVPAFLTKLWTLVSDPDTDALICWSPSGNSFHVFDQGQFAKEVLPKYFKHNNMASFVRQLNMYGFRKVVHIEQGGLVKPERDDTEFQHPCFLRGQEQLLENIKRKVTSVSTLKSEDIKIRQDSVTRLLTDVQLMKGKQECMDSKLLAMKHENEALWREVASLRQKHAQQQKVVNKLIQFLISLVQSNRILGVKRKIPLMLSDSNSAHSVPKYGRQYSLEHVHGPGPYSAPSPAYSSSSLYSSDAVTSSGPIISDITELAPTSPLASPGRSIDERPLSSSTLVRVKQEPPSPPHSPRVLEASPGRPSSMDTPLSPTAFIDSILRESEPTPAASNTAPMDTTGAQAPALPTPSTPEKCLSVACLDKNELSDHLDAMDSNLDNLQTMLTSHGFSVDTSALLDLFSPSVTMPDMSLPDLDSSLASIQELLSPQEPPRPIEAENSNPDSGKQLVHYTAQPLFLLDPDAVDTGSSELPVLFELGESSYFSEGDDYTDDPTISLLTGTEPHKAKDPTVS
The experiment in a line: enhancement of HSF1-driven luciferase signal – cell-based, NIH3T3, luminescence, dose retest, confirmation (AID 435004).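 Further: stress induced by proteasome inhibitor MG132 added 30 min after compound; luciferase reporter driven by HSF1 response element in NIH3T3 cells; actives raise luminescence as potentiators of the MG132 stress response.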 It is filed as functional.

Active and inactive are the calls of the source.

For `O=C1c2cc(F)ccc2-n2c1nc1ccccc1c2=O`, the IC50 (as a rule, the concentration at which inhibition is half-maximal) in assay [1] is 0.433 µM (active). For the same molecule, the AC50 (commonly the concentration at which the activity in the assay is half-maximal) in assay [2] is > 120 µM (inactive). For the same molecule, the EC50 (in general, the concentration that produces a half-maximal response) on Protein RecA is > 380 µM (inactive).

`CCOC(=O)C1=C(c2ccc(OC)cc2)C(=O)c2ccccc2C1=O`: the IC50 in assay [1] was 0.322 µM (active). The EC50 was 0.605 µM (active) in the assay with BJ, 3.57 µM (active) in assay [3], 52.2 µM (active) in assay [4] and 1.83 µM (active) at Protein RecA. Further, the AC50 in assay [2] was 4.41 µM (active).

With `COCCCNC(=O)c1ccc2c3c(onc13)-c1ccccc1C2=O`, the EC50 is 4.11 µM (active) in the assay with BJ, 3.48 µM (active) in assay [4] and 13 µM (active) on Protein RecA.

Take `O=C1C=C(N(CCO)Cc2ccccc2)c2ccccc2C1=O`: the AC50 in assay [2] was > 380 µM (inconclusive). Besides, at Protein RecA, the EC50 was 0.402 µM (active).

With `CCC(=O)OCCNc1cc(Sc2nccn2C)c2nonc2c1[N+](=O)[O-]`, the EC50 in assay [3] is 4.83 µM (active); in assay [4], 4.5 µM (active); at Protein RecA, 1.37 µM (active). Moreover, the AC50 in assay [2] was 2.9 µM (active).

Regarding `CCCCn1c(NC(=O)c2ccccc2Cl)c(C#N)c2nc3ccccc3nc21`, the IC50 in assay [1] is 6.15 µM (active).

`CCc1ccc(OCC(=O)N/N=C2\CC(=O)c3ccccc32)cc1`: the concentration giving a half-maximal response (EC50) was 10.2 µM (active) in assay [3] and 1.24 µM (active) on Protein RecA. The half-maximal activity concentration (AC50) in assay [2] is 6.09 µM (active).

Regarding `O=C1C(=O)c2ccccc2-c2ccccc21` [9,10-PHENANTHRENEQUINONE], the EC50 in the assay on BJ was 2.74 µM (inconclusive); at Protein RecA, 7.45 µM (active). Also, in assay [2], the half-maximal activity concentration (AC50) was 6.47 µM (active).
